Laboratory results as given in US8637075B2, “Colostrum composition” (Pharma GP ApS, priority 2008, dated 2014).

Assays:
Type in all cases: cell-based
[1] = tested on: indoleamine 2,3-dioxygenase (IDO) activity in PHA-stimulated PBMC; assay: Example 16: IDO activity (kyn/trp) in PHA-stimulated human PBMC; conditions: PHA 10 μg/ml, 48 h
Protocol: (§1) PBMC were isolated from whole blood obtained from healthy donors, of whom informed consent was obtained that their donated blood unit was used for scientific purposes if not otherwise used. Separation of blood cells was performed using density centrifugation (Lymphoprep, Nycomed Pharma AS, Oslo, Norway). After isolation, PBMC were washed three times in phosphate buffered saline containing […] [0.5 mmol/L]. Cells were maintained in RPMI 1640 supplemented with 10% heat-inactivated fetal calf serum (Biochrom, Berlin, Germany), 1% of 200 mmol/L glutamine (Serve, Heidelberg, Germany) and 0.1% of gentamicin (50 mg/ml, Bio-Whittaker, Walkersville, Md.) in a humidified atmosphere containing 5% CO2 for 48 h. This procedure was observed earlier to reveal best reproducible results when applied for testing of anti-inflammatory effects of compounds or drugs (Widner et al., 1997). Average tryptophan content in the supplemented RPMI 1640 medium was 31.5 μmol/L. For each of the three experiments run in duplicates, PBMC were freshly prepared. Isolated PBMC were plated at a density of 1.5×10^6 cells/ml in supplemented RPMI 1640, preincubated for 30 minutes with or without BC preparations and stimulated or not with 10 μg/ml PHA for 48 h.
(§2) After incubation of cells for 48 h, supernatants were harvested by centrifugation and tryptophan and kynurenine concentrations were measured by high performance liquid chromatography (HPLC) using 3-nitro-L-tyrosine as internal standard (Widner and others 1997). To estimate IDO activity, the kynurenine to tryptophan ratio (kyn/trp) was calculated and expressed as μmol kynurenine/mmol tryptophan (Widner et al., 1997). Neopterin concentrations were determined by ELISA (BRAHMS, Hennigsdorf/Berlin, Germany) according to the manufacturer's instructions with a detection limit of 2 nmol/L.
(§3) For statistical analysis, the Statistical Package for the Social Sciences (version 14 SPSS, Chicago, Ill., USA) was used. […] P-values below 0.05 were considered to indicate significant differences.

[2] = tested on: neopterin formation in PHA-stimulated PBMC; assay: Example 16: neopterin formation in PHA-stimulated human PBMC; conditions: PHA 10 μg/ml, 48 h
Protocol: as §1, §2, §3

[3] = tested on: neopterin formation in unstimulated PBMC; assay: Example 16: neopterin formation in unstimulated human PBMC; conditions: 48 h
Protocol: (§4) PBMC were isolated from whole blood obtained from healthy donors, of whom informed consent was obtained that their donated blood unit was used for scientific purposes if not otherwise used. Separation of blood cells was performed using density centrifugation (Lymphoprep, Nycomed Pharma AS, Oslo, Norway). After isolation, PBMC were washed three times in phosphate buffered saline containing 0.2% EDTA [0.5 mmol/L]. Cells were maintained in RPMI 1640 supplemented with 10% heat-inactivated fetal calf serum (Biochrom, Berlin, Germany), 1% of 200 mmol/L glutamine (Serve, Heidelberg, Germany) and 0.1% of gentamicin (50 mg/ml, Bio-Whittaker, Walkersville, Md.) in a humidified atmosphere containing 5% CO2 for 48 h. […]
(§5) After incubation of cells for 48 h, supernatants were harvested by centrifugation and tryptophan and kynurenine concentrations were measured by high performance liquid chromatography (HPLC) using 3-nitro-L-tyrosine as internal standard (Widner and others 1997). To estimate IDO activity, the kynurenine to tryptophan ratio (kyn/trp) was calculated and expressed as μmol kynurenine/mmol tryptophan (Widner et al., 1997). Neopterin concentrations were determined by ELISA (BRAHMS, Hennigsdorf/Berlin, Germany) according to the manufacturer's instructions with a detection limit of 2 nmol/L. […]

[4] = tested on: indoleamine 2,3-dioxygenase (IDO) activity in unstimulated PBMC; assay: Example 16: IDO activity (kyn/trp) in unstimulated human PBMC; conditions: 20 mg/ml, 48 h
Protocol: as §4, §5

| Substance | Kyn/trp ([1]; PBMC) [μmol/mmol] | increase of IDO activity versus unstimulated PBMC ([1]; PBMC) | kynurenine concentration in the supernatant ([1]; PBMC) [µmol/L] | tryptophan content in the supernatant ([1]; PBMC) [µmol/L] | increase of neopterin concentration versus unstimulated PBMC ([2]; PBMC) | neopterin concentration in the supernatant ([2]; PBMC) [nmol/L] | neopterin formation as % of unstimulated control ([3]; 0.2 mg/ml) [%] | neopterin formation as % of unstimulated control ([3]; 2 mg/ml) [%] | IDO activity (kyn/trp) as % of PHA control ([1]; 0.2 mg/ml) [%] | neopterin formation as % of PHA control ([2]; 2 mg/ml) [%] | neopterin formation as % of PHA control ([2]; 20 mg/ml) [%] | IDO activity (kyn/trp) as % of unstimulated control [4] [%] |
| --- | --- | --- | --- | --- | --- | --- | --- | --- | --- | --- | --- | --- |
| phytohemagglutinin [phytohemagglutinin (PHA)] | 1312±459 | approximately 47 fold | 9.8 ± 1.3 | 8.2 ± 2.0 | about 3.6 fold | 13.2 ± 3.6 | – | – | – | – | – | – |
| lactoferrin | – | – | – | – | – | – | 125±2.8 | 132±4.1 | 34.0±9.7 | 61.3±11.7 | 31.1±3.9 | 54.7±5.0 |
